Experimental data: US11827704B2, “Antibody molecules to PD-1 and uses thereof” (Novartis AG, priority 2014, dated 2023)
Read-outs that look alike come from different tables or passages of the source.

What was measured:
[1] = tested on: PD-L1 (CD274) surface expression in EBC-1 cells; experiment: Flow cytometry of PD-L1 surface expression in EBC-1 cells in vitro; assay type: cell-based, human; details: EBC-1 cells (NSCLC with cMET amplification); 10 nM, 100 nM, 1000 nM for 24, 48 and 72 hours; FIG. 15
Procedure: PD-L1 (CD274) expression was analyzed in cancer cell lines treated with Compound A17. Cells were obtained from ATCC and cultured in vitro following ATCC directions. The cell lines used were previously characterized by the Cancer Cell Line Encyclopedia Project (broadinstitute.org/ccle/home).
Cells plated in six-well culture plates were treated with the Compound A17 at different concentrations (10 nM, 100 nM, and 1000 nM) for 24, 48 and 72 hours. Equal amount of vehicle (DMSO) was used as a control. Cells were washed with PBS and then harvested using a cell scraper.
For each reaction, 0.5-1×10^6 cells were stained with 20 μL of anti-human monoclonal PD-L1-PE antibody, clone M1H1 (BD) for 30-60 minutes at 4° C. Cells were washed twice and data was acquired using a Canto II with FACSDiva software (BD Bioscience). Data analysis was performed using FlowJo software (Tree Star). Mean fluorescence intensity (MFI) was determined by gating on single cells. Unstained cells were used as a gating control.

[2] = tested on: PD-L1 (CD274) mRNA in Hs.746.T tumor; experiment: TaqMan RT PCR of PD-L1 mRNA in Hs.746.T tumor xenograft; assay type: in vivo, human; details: Hs.746.T tumor (gastric cancer cell with cMET amplification & mutation) xenograft; FIG. 16
[3] = tested on: PD-L1 (CD274) mRNA in UKE-1 tumors; experiment: TaqMan RT PCR of PD-L1 mRNA in UKE-1 tumor xenograft model; assay type: in vivo, human; details: tumor xenograft model bearing UKE-1 (MPN line with JAK2V617F mutation); FIG. 20
[4] = tested on: PD-L1 (CD274) mRNA in H3122 cells; experiment: TaqMan RT PCR of PD-L1 mRNA in H3122 cells in vitro; assay type: cell-based, human; details: H3122 (NSCLC with ALK translocation) in vitro; FIG. 17
Procedure: (§1) TaqMan RT PCR assays were developed to detect changes of expression levels of PD-L1 (CD274) in cell lines and xenograft tumors. mRNA was isolated from frozen cell pellets or tumor fragments using the Qiagen RNeasy Mini kit. Isolated RNA was frozen at −80° C. RNA quality was checked and RNA was quantified using a 2100 Agilent Bioanalyzer following the protocol for the Agilent RNA 6000 Nano Kit. cDNA was prepared using a High Capacity RNA- to cDNA Kit (Applied Biosystems).
(§2) Real-time PCR reactions were carried out in 20 μl total volume, including 10 μl of Universal PCR master mix (Applied Biosystems), 1 μl of human PD-L1 (CD274) probe/primer set (Applied Biosystems), and 8 μl of cDNA. Each sample was run in triplicate. The amount of cDNA produced from 25-50 ng of RNA in the reverse transcription reaction was used in each PCR reaction. Due to difference in mRNA levels between PD-L1 and GAPDH, the two real-time PCR reactions were done in separate tubes using same amount of cDNA. The real-time PCR reaction was run on the C1000 Thermal Cycle (BioRad) with the cycle program as follows: a 10 minute incubation at 95° C. followed by 40 cycles of 95° C. for 15 seconds and 60° C. for 1 minute. After the reaction was complete, the PD-L1 average Ct was normalized relative to each Ct value from the GAPDH reference reaction. Each normalized logarithmic value was then converted into a linear value.

[5] = tested on: PD-L1 (CD274) mRNA in LOXIMV1 tumors; experiment: TaqMan RT PCR of PD-L1 mRNA in LOXIMV1 tumor xenograft model; assay type: in vivo, human; details: tumor xenograft model bearing LOXIMV1 (BRAF mutant melanoma); FIG. 18
Procedure: as §1, §2

[6] = tested on: PD-L1 (CD274) mRNA in HEYA8 tumors; experiment: TaqMan RT PCR of PD-L1 mRNA in HEYA8 tumor xenograft model; assay type: in vivo, human; details: tumor xenograft model bearing HEYA8 (KRAS mutant ovarian cancer); FIG. 19
Procedure: as §1, §2

[7] = tested on: IFN-γ expression; assay type: cell-based
[8] = tested on: CD8^+ T cells; experiment: Proliferation of CD8+ T cells activated with CMV peptides; assay type: cell-based; details: percentages of CD8+ cells that passed through at least n cell divisions (n=2, 4, 6)

CNC(=O)c1ccc(-c2cnc3ncc(Cc4ccc5ncccc5c4)n3n2)cc1F [Compound A17, 2-fluoro-N-methyl-4-(7-(quinolin-6-ylmethyl)imidazo[1,2-b][1,2,4]triazin-2-yl)benzamide]
surface expression of PD-L1 (flow cytometry) [1]: significant downregulation
PD-L1 expression (mRNA) [2]: Inhibition

N#CC[C@H](C1CCCC1)n1cc(-c2ncnc3[nH]ccc23)cn1 [Compound A18, Ruxolitinib Phosphate]
PD-L1 mRNA [3]: Downregulation

Cc1cc(Nc2ncc(Cl)c(Nc3ccccc3S(=O)(=O)C(C)C)n2)c(OC(C)C)cc1C1CCNCC1 [Compound A23, ceritinib]
PD-L1 mRNA [4]: Inhibition

COC(=O)N[C@@H](C)CNc1nccc(-c2cn(C(C)C)nc2-c2cc(Cl)cc(NS(C)(=O)=O)c2F)n1 [Compound A29, Encorafenib]
PD-L1 mRNA [5]: Downregulation

Cn1cnc2c(F)c(Nc3ccc(Br)cc3F)c(C(=O)NOCCO)cc21 [Compound A34, Binimetinib]
PD-L1 mRNA [6]: Downregulation

B1: BAP049: murine anti-PD-1 monoclonal antibody; sequences in Table 1 (antibody, V domains shown)
VH: QVQLQQSGSELVRPGASVKLSCKASGYTFTTYWMHWVRQRPGQGLEWIGNIYPGTGGSNFDEKFKNRTSLTVDTSSTTAYMHLASLTSEDSAVYYCTRWTTGTGAYWGQGTLVTVSA
VL: DIVMTQSPSSLTVTAGEKVTMSCKSSQSLLDSGNQKNFLTWYQQKPGQPPKLLIFWASTRESGVPDRFTGSGSVTDFTLTISSVQAEDLAVYYCQNDYSYPCTFGGGTKLEIK
fold increase in IFN-γ expression [7]: 2.8±0.8 fold
fold increase in IFN-γ expression ([7]; cells stimulated with Staphylococcal enterotoxin B (SEB) (3 μg/mL)): 2.5±2.0 fold
proliferation of CD8+ T cells activated with CMV peptides [8]: increase proliferation
